In patent US20140066365A1, “USE OF CALIXARENES ASSOCIATED WITH AN ANTIBIOTIC IN THE TREATMENT OF BACTERIAL INFECTIONS” (priority 2011, published 2014):

Assays:
[1] = tested on: EcR3: ESBL-Producing Escherichia coli; test: Antibiogram by the disk diffusion technique; format: cell-based
Description: The bacterial and antibiogramidentification is carried out by the VITEK 2 system (bioMerieux) and by the disk diffusion technique

[2] = tested on: EcR1: Penicillinase-Producing Escherichia coli without Associated Resistance; test: Antibiogram, MIC by the VITEK 2 system; format: cell-based
Description: (§1) 5.1 EcR1: Penicillinase-Producing Escherichia coli without Associated Resistance The bacterial and antibiogramidentification is carried out by the VITEK 2 system (bioMérieux) and by the disk diffusion technique.

[3] = tested on: PaR3: Pseudomonas aeruginosa; test: Antibiogram, MIC by the VITEK 2 system; format: cell-based
Description: (§2) The bacterial and antibiogramidentification is carried out by the VITEK 2 system (bioMérieux)

[4] = tested on: SaR1: Meticillin-Resistant Staphylococcus aureus without Associated Resistance; test: Antibiogram, MIC by the VITEK 2 system; format: cell-based; conditions: SaR1
Description: as §2

[5] = tested on: MRSA strain without associated resistance (SaR1); test: MIC of the compounds used alone, microdilution in a liquid medium (CLSI); format: cell-based, Staphylococcus aureus; conditions: antibiotic alone (second value of cell); SaR1
Text: (§3) The MICs of the antibiotics were previously defined for each strain, by the method of microdilution in a liquid medium (CLSI (Clinical and Laboratory Standards Institute), 2003).

[6] = tested on: MRSA strain having a resistance to the aminoglycosides and fluoroquinolones (SaR3); test: as above; format: cell-based, Staphylococcus aureus; conditions: antibiotic alone (second value of cell); SaR3
Text: as §3

[7] = tested on: MRSA strain having a resistance to the aminoglycosides, fluoroquinolones, macrolides-lincosamides-synergistins and ofloxacin (SaR4); test: as above; format: cell-based, Staphylococcus aureus; conditions: antibiotic alone (second value of cell); SaR4
Text: as §3

[8] = tested on: SaR1: Meticillin-Resistant Staphylococcus aureus without Associated Resistance; test: Antibiogram, inhibition diameter (Table D1); format: cell-based
Description: as §2

[9] = tested on: Escherichia coli, Staphylococcus aureus and Pseudomonas aeruginosa strains; test: Chessboard technique, summary statements over all strains and combinations tested; format: cell-based; conditions: strain not stated
Outline: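 Checkerboard of 64 antibiotic/Cx1 concentration combinations per strain. FIC index classed as synergy (≤0.5), additive (>0.5–1), indifferent (>1–4) or antagonism (>4). Each strain and combination tested at least 3 times.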

[10] = tested on: Escherichia coli strain ATCC 25922 (wild type); test: MIC of the compounds used alone, microdilution in a liquid medium (CLSI); format: cell-based; conditions: antibiotic alone (second value of cell); E. coli ATCC 25922
Text: as §3

[11] = tested on: Staphylococcus aureus strain ATCC 29213 (wild type); test: as above; format: cell-based; conditions: antibiotic alone (second value of cell); S. aureus ATCC 29213
Text: as §3

[12] = tested on: ESBL-producing strain of Escherichia coli, having an associated resistance to the aminoglycosides (EcR3); test: as above; format: cell-based; conditions: antibiotic alone (second value of cell)
Text: as §3

[13] = tested on: penicillinase-producing strain of Escherichia coli without associated resistance (EcR1); test: as above; format: cell-based; conditions: antibiotic alone (second value of cell)
Text: as §3

[14] = tested on: cephalosporinase-hyperproducing strain of Escherichia coli (EcR2); test: as above; format: cell-based; conditions: antibiotic alone (second value of cell)
Text: as §3

[15] = tested on: SaR4: Meticillin-Resistant Staphylococcus aureus; test: Antibiogram by the disk diffusion technique; format: cell-based
Description: (§4) The bacterial and antibiogramidentification is carried out by the VITEK 2 system (bioMérieux) and by the disk diffusion technique

[16] = tested on: PaR5: Pseudomonas aeruginosa; test: Antibiogram by the disk diffusion technique; format: cell-based
Description: as §4

[17] = tested on: SaR3: Meticillin-Resistant Staphylococcus aureus; test: Antibiogram by the disk diffusion technique; format: cell-based
Description: as §4

[18] = tested on: EcR1: Penicillinase-Producing Escherichia coli without Associated Resistance; test: Antibiogram by the disk diffusion technique; format: cell-based; conditions: Table A1
Description: as §1

[19] = tested on: EcR2: Cephalosporinase-Hyperproducing Strain of Escherichia coli; test: Antibiogram by the disk diffusion technique; format: cell-based
Description: The bacterial and antibiogramidentification is carried out by the VITEK 1 system (bioMérieux) and by the disk diffusion technique

[20] = tested on: PaR2: Pseudomonas aeruginosa; format: cell-based
Description: as §4

## Gentamicin
[1]; Cd CA-SFM 2011
  CA-SFM Interpretation: Resistant
[1]; Cd CLSI 2011
  CLSI Interpretation: Intermediate
[1]; Cd EUCAST 2011
  EUCAST Interpretation: Resistant
[1]; Table C1
  Diameter: 12 mm
[1]; Table C1, against Dmin Dmax
  Results: Resistant
[1]; Table C2
  diameter in mm: 12 mm
[2]; EcR1, MIC against Cc CA-SFM 2011
  CA-SFM Interpretation: Susceptible
[2]; EcR1, MIC against Cc CLSI 2011
  CLSI Interpretation: Susceptible
[2]; EcR1, MIC against Cc EUCAST 2011
  EUCAST Interpretation: Susceptible
[2]; EcR1, Table A2
  MIC mg/L (diameter in mm): ≦1 mg/L
[2]; EcR1, VITEK 2, Table A1
  MIC mg/L: ≦1 mg/L
[2]; EcR1, interpretation of the MIC, Table A1
  Results: Susceptible
[3]; Cc CA-SFM 2011
  CA-SFM Interpretation: Resistant
[3]; Cc CLSI 2011
  CLSI Interpretation: Resistant
[3]; Cc EUCAST 2011
  EUCAST Interpretation: Resistant
[3]; Table H1
  MIC: ≧16
  Results: Resistant
[3]; Table H2
  MIC mg/L: ≧16 mg/L
[4]; Cc CA-SFM 2011
  CA-SFM Interpretation: Susceptible
[4]; Cc CLSI 2011
  CLSI Interpretation: Susceptible
[4]; Cc EUCAST 2011
  EUCAST Interpretation: Susceptible
[4]; Table D1
  MIC mg/L: ≦0.5 mg/L
[4]; Table D1, from MIC
  Results: Susceptible
[4]; Table D2
  MIC mg/L: ≦0.5 mg/L
[5]
  MIC: 0.25 µg/mL
[6]
  MIC: 0.125 µg/mL
[7]
  MIC: 0.25 µg/mL
[8]
  Diameter: 23 mm
[8]; from diameter, against Dmin Dmax
  Results: Susceptible
[9]
  interaction between the antibiotic and Cx1: synergism
[10]
  Initial MICs: 0.125 mg/L
[11]
  Initial MICs: 0.25 mg/L
[12]
  Initial MICs (mg/L): 2/2 mg/L
[13]
  Initial MICs: 0.125 mg/L
[14]
  Initial MICs (mg/L): 2/2 mg/L
[15]; Table F1
  Diameter: 21
[15]; Table F1, rows with a diameter
  Results: Susceptible
[15]; Table F2, diameters
  Diameter: 21 mm
[15]; from diameter, CA-SFM 2011
  CA-SFM Interpretation: Susceptible
[15]; from diameter, CLSI 2011
  CLSI Interpretation: Susceptible
[15]; from diameter, EUCAST 2011
  EUCAST Interpretation: Susceptible
[16]; PaR5, Table I1
  Diameter: 25 mm
[16]; PaR5, Table I1, against Dmin-Dmax
  Results: Susceptible
[16]; disk diffusion inhibition diameter, strain PaR5
  diameter in mm: 25 mm
[16]; disk diffusion, PaR5, versus critical diameter CA-SFM 2011
  CA-SFM Interpretation: Susceptible
[16]; disk diffusion, PaR5, versus critical diameter CLSI 2011
  CLSI Interpretation: Susceptible
[16]; disk diffusion, PaR5, versus critical diameter EUCAST 2011, for ** antibiotics the disk load differs and the EUCAST interpretation is not applicable
  EUCAST Interpretation: Susceptible
[17]; Cd CA-SFM 2011
  CA-SFM Interpretation: Susceptible
[17]; Cd CLSI 2011
  CLSI Interpretation: Susceptible
[17]; Cd EUCAST 2011
  EUCAST Interpretation: Susceptible
[17]; Table E1
  Diameter: 20 mm
[17]; Table E1, against Dmin Dmax
  Results: Susceptible
[17]; Table E2
  diameter in mm: 20 mm
[18]; EcR1, disk diffusion
  Diameter: 20 mm
[18]; EcR1, interpretation of the diameter against Dmin Dmax
  Results: Susceptible
[19]; EcR2, disk diffusion, Table B1
  Diameter: 12
[19]; EcR2, rows that print a diameter, Table B1
  Results: Resistant
[19]; EcR2, Table B2, diameters
  Diameter: 12 mm
[19]; EcR2, from diameter, CA-SFM 2011
  CA-SFM Interpretation: Resistant
[19]; EcR2, from diameter, CLSI 2011
  CLSI Interpretation: Resistant
[19]; EcR2, from diameter, EUCAST 2011
  EUCAST Interpretation: Resistant
[20]; Cd CA-SFM 2011
  CA-SFM Interpretation: Susceptible
[20]; Cd CLSI 2011
  CLSI Interpretation: Susceptible
[20]; Cd EUCAST 2011
  EUCAST Interpretation: Susceptible
[20]; Table G1
  Diameter: 21 mm
[20]; Table G1, against Dmin-Dmax
  Results: Susceptible
[20]; Table G2
  diameter in mm: 21 mm
